BindingDB's records for doi:10.7270/Q2VX0F3D (Burnham Center For Chemical Genomics, 2012)
pEC50: −log10 of the molar value.

Target: T1, Corticotropin-releasing factor-binding protein (Homo sapiens, UniProt P24387)
T1 sequence (P24387 whole entry): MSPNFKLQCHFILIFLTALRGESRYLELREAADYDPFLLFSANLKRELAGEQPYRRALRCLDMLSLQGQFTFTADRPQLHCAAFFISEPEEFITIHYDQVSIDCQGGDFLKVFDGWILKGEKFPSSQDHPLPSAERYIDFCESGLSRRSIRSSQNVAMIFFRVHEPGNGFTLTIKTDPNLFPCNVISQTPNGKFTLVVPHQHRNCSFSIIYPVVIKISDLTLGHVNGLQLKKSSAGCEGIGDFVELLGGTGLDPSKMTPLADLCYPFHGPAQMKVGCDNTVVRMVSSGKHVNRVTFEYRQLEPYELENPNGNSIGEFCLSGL
Test: activators of CRF receptor 2 with binding protein – uHTS hits, confirmation (AID 602473)

| SMILES | pEC50 |
| --- | --- |
| Nc1ccc2c(c1)C(N=O)c1ccccc1-2 (stereo not drawn) [SMR001570622] | < 4.28 |
| CN(C)c1ccc(C(N=O)c2ccccc2)cc1 (stereo not drawn) [[4-(dimethylamino)phenyl]-phenylmethanone oxime] | < 4.28 |
| N#CC(C(=O)COC(=O)c1ccccc1O)c1nc2ccccc2s1 (stereo not drawn) [[(3Z)-3-(3H-1,3-benzothiazol-2-ylidene)-3-cyano-2-oxidanylidene-propyl] 2-oxidanylbenzoate] | < 4.28 |
| O=NC(N1CCOCC1)P(=O)(N1CCOCC1)N1CCOCC1 (stereo not drawn) [bis(4-morpholinyl)phosphoryl-(4-morpholinyl)methanone oxime] | < 4.28 |
| CCOC(=O)C1CCCN(c2cc(O)n(-c3ccccc3)c2O)C1 (stereo not drawn) [ethyl 1-(2,5-dioxo-1-phenylpyrrolidin-3-yl)piperidine-3-carboxylate] | < 4.28 |
| CCOC(=O)c1c(NC=C2C(=O)NC(=S)NC2=O)sc2c1CCC2 [ethyl 2-[(E)-(4,6-dioxo-2-sulfanylidene-1,3-diazinan-5-yl)methylideneamino]-5,6-dihydro-4H-cyclopenta[b]thiophene-3-carboxylate] | < 4.28 |
| COC(=O)C1=C(C)NC(=O)C1=CNc1ccc(C(C)C)cc1 [methyl (4E)-2-methyl-5-oxidanylidene-4-[[(4-propan-2-ylphenyl)amino]methylidene]-1H-pyrrole-3-carboxylate] | < 4.28 |
| COC(=O)Cc1sc(=O)[nH]c1Nc1ccc(OC)cc1 [methyl {4-[(4-methoxyphenyl)imino]-2-oxo-1,3-thiazolidin-5-yl}acetate] | < 4.28 |
